# ChEMBL document CHEMBL4834420, “Projected Dose Optimization of Amino- and Hydroxypyrrolidine Purine PI3Kδ Immunomodulators” (J Med Chem, 2021)
# Tests used:
# [1] = Inhibition of adenosine transporter in human HeLa cells assessed as reduction in [3H]adenosine uptake preincubated for 30 mins followed by [3H]adenosine addition and measured after 60 mins; format: cell-based
# [2] = biological target: PI3-kinase p110-delta/p85-alpha (Homo sapiens, UniProt O00329); test: Inhibition of N-terminal His6-tagged recombinant full length human p110delta/untagged recombinant full length human p85alpha expressed in baculovirus infected Sf21 insect cells using PIP2 as substrate preincubated for 15 mins followed by substrate addition and measured after 1 hr by HTRF assay
# [3] = biological target: T1, Phosphatidylinositol 4,5-bisphosphate 3-kinase catalytic subunit delta isoform (Homo sapiens, UniProt O00329); test: Inhibition of PI3Kdelta in human Ramos cells assessed as reduction in anti-IgM-antibody-induced phosphorylation of AKT at Ser473 residue preincubated for 20 mins followed by anti-IgM antibody stimulation and measured after 30 mins by alphascreen assay; format: cell-based
# T1 sequence (O00329 whole entry): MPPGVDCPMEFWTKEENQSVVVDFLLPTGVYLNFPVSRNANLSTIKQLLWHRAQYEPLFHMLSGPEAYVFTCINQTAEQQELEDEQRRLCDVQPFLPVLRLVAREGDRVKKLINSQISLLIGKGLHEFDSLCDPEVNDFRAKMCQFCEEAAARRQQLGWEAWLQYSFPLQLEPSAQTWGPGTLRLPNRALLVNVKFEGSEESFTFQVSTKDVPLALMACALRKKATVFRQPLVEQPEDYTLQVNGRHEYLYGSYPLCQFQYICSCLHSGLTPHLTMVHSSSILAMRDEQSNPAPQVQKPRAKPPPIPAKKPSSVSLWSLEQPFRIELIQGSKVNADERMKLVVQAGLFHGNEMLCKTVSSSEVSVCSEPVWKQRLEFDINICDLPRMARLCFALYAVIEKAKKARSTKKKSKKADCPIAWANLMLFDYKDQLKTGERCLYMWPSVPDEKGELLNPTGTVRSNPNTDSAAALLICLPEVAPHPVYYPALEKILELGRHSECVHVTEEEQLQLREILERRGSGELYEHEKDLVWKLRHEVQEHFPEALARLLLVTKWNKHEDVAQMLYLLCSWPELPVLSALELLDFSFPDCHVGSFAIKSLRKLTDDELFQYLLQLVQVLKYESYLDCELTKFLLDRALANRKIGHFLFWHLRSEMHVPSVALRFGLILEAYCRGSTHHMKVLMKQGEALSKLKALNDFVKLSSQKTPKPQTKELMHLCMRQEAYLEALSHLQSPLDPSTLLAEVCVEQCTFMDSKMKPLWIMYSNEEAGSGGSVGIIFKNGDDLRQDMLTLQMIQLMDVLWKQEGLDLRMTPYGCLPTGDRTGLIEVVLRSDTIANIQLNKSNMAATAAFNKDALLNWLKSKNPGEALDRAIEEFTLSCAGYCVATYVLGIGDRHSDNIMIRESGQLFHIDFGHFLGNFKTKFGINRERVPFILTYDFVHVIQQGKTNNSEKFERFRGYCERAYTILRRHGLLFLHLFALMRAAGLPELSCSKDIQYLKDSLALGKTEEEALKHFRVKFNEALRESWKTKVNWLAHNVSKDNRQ
# [4] = Plasma clearance in Wistar Han rat at 0.5 mg/kg, iv or 1 mg/kg, po; format: ADME, organism-based
# [5] = biological target: T1, Phosphatidylinositol 4,5-bisphosphate 3-kinase catalytic subunit delta isoform; test: Inhibition of PI3Kdelta in human whole blood assessed as reduction in anti-CD79b antibody-induced CD69 expression preincubated for 60 mins followed by anti-CD79b antibody stimulation and measured after 3 hrs by FACS analysis; format: tissue-based
# [6] = Intrinsic clearance in Wistar Han rat at 0.5 mg/kg, iv or 1 mg/kg, po; format: ADME, organism-based; settings: in vivo
# [7] = Lipophilicity, log D of the compound by HPLC analysis; format: physicochemical
# [8] = Plasma clearance in Beagle dog at 0.25 mg/kg, iv or 0.5 mg/kg, po; format: ADME, organism-based, Canis lupus familiaris
# [9] = Unbound volume of distribution in Beagle dog; format: ADME, Canis lupus familiaris; settings: in vivo
# [10] = Oral bioavailability in Wistar Han rat; format: ADME, organism-based; settings: in vivo
# [11] = Volume of distribution in Wistar Han rat; format: ADME; settings: in vivo
# [12] = Apparent permeability in pig LLC-PK1 cells; format: ADME, cell-based, Sus scrofa
# [13] = Half-life in Beagle dog; format: ADME, Canis lupus familiaris; settings: in vivo
# [14] = Half-life in Wistar Han rat; format: ADME; settings: in vivo
# [15] = Intrinsic clearance in Beagle dog at 0.25 mg/kg, iv or 0.5 mg/kg, po; format: ADME, organism-based, Canis lupus familiaris; settings: in vivo
# [16] = Volume of distribution in Beagle dog; format: ADME, Canis lupus familiaris; settings: in vivo
# [17] = Unbound volume of distribution in Wistar Han rat; format: ADME; settings: in vivo
# [18] = Oral bioavailability in Beagle dog; format: ADME, organism-based, Canis lupus familiaris; settings: in vivo
# Sequence of PI3-kinase p110-delta/p85-alpha (P27986 whole entry, one chain of several, canonical isoform): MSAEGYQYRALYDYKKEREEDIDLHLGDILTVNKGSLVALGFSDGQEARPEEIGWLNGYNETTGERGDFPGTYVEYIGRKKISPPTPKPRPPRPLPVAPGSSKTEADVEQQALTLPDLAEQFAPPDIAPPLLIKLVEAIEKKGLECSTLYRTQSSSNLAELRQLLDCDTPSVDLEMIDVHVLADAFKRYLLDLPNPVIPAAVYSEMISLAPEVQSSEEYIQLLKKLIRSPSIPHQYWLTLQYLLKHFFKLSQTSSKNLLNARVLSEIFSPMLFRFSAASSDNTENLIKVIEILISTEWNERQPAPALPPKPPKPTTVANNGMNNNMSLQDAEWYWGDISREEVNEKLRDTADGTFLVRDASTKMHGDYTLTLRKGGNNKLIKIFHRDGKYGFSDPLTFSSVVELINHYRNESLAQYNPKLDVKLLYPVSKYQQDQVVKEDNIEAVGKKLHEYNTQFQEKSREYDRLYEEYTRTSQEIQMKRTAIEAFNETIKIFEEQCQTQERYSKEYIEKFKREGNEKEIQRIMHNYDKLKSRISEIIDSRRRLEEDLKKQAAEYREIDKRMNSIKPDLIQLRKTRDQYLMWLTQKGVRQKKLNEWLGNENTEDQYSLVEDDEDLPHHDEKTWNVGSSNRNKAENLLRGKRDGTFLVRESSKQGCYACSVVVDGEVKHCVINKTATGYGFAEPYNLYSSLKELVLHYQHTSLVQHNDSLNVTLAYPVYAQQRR
structure (smiles),measurement,setting,value
CCC(=O)N1CC[C@H](Nc2ncnc3c2nc(-c2cnc(C)nc2)n3C)C1,IC50,[1],2000 nM
same,IC50,[2],4.2 nM
same,IC50,[3],71 nM
CCC(=O)N1CC[C@H](Nc2ncnc3c2nc(-c2cnn(CC)c2C)n3CC(F)(F)F)C1,IC50,[1],9300 nM
same,IC50,[2],5.9 nM
same,IC50,[3],330 nM
CCn1c(-c2cnc(C)nc2)nc2c(N[C@H]3CCN(C(=O)N4CC(OC)C4)C3)ncnc21,clearance,[4],11 mL/min/kg
same,IC50,[1],4700 nM
same,IC50,[5],9 nM
same,CL,[6],93 mL/min/kg
same,IC50,[2],0.7 nM
same,logD,[7],0.7
same,clearance,[8],9 mL/min/kg
same,Vdu,[9],1.9 L/kg
same,bioavailability,[10],16%
same,Vd,[11],0.7 L/kg
same,Papp,[12],10 ×10⁻⁶ cm/s
same,IC50,[3],67 nM
same,half-life,[13],1.7 h
same,half-life,[14],4 h
same,CL,[15],19 mL/min/kg
same,Vd,[16],1.4 L/kg
same,Vdu,[17],4.8 L/kg
same,bioavailability,[18],69%
CCC(=O)N1CC[C@H](Nc2ncnc3c2nc(-c2cnn(CC)c2C)n3CC)C1,IC50,[1],2300 nM
same,IC50,[2],0.2 nM
same,IC50,[3],2 nM
CCC(=O)N1CC[C@H](Nc2ncnc3c2nc(-c2cnc(OC)c(C)c2)n3C)C1,IC50,[1],300 nM
same,IC50,[3],6 nM
CCC(=O)N1CC[C@H](Nc2ncnc3c2nc(-c2cnc(C(C)(C)C)s2)n3C)C1,IC50,[1],1600 nM
same,IC50,[2],0.7 nM
same,IC50,[3],4 nM
CCC(=O)N1CC[C@H](Nc2ncnc3c2nc(-c2cnn(CC)c2C)n3CC2CC2)C1,IC50,[3],1350 nM
CCn1c(-c2ccc(C(F)(F)F)nc2)nc2c(O[C@H]3CCN(C(=O)[C@H]4C[C@@H](OC)C4)C3)ncnc21,clearance,[4],3.6 mL/min/kg
same,IC50,[1],4100 nM
same,IC50,[5],73 nM
same,CL,[6],130 mL/min/kg
same,IC50,[2],1.6 nM
same,logD,[7],2.2
same,clearance,[8],6.2 mL/min/kg
same,Vdu,[9],2.5 L/kg
same,bioavailability,[10],39%
same,Vd,[11],0.4 L/kg
same,Papp,[12],35 ×10⁻⁶ cm/s
same,IC50,[3],67 nM
same,half-life,[13],2.6 h
same,half-life,[14],3.3 h
same,CL,[15],18 mL/min/kg
same,Vd,[16],1.1 L/kg
same,Vdu,[17],13 L/kg
same,bioavailability,[18],100%
CCn1c(-c2ccc(C(F)(F)F)nc2)nc2c(O[C@H]3CCN(C(=O)N4CC(OC)C4)C3)ncnc21,clearance,[4],1.7 mL/min/kg
same,IC50,[1],2200 nM
same,IC50,[5],68 nM
same,CL,[6],29 mL/min/kg
same,IC50,[2],1.3 nM
same,logD,[7],2.1
same,clearance,[8],12 mL/min/kg
same,Vdu,[9],1.7 L/kg
same,bioavailability,[10],52%
same,Vd,[11],0.2 L/kg
same,Papp,[12],33 ×10⁻⁶ cm/s
same,IC50,[3],43 nM
same,half-life,[13],0.7 h
same,half-life,[14],2 h
same,CL,[15],46 mL/min/kg
same,Vd,[16],0.7 L/kg
same,Vdu,[17],4.2 L/kg
same,bioavailability,[18],100%
CCC(=O)N1CC[C@H](Nc2ncnc3c2nc(-c2ccc(OC)nc2)n3C)C1,IC50,[1],1900 nM
same,IC50,[3],67 nM
CCn1c(-c2cnc(C)nc2)nc2c(O[C@H]3CCN(C(=O)[C@H]4C[C@@H](OC)C4)C3)ncnc21,clearance,[4],3.8 mL/min/kg
same,IC50,[1],> 10000 nM
same,IC50,[5],75 nM
same,CL,[6],19 mL/min/kg
same,IC50,[2],2.8 nM
same,logD,[7],1
same,clearance,[8],2.1 mL/min/kg
same,Vdu,[9],0.9 L/kg
same,bioavailability,[10],37%
same,Vd,[11],0.5 L/kg
same,Papp,[12],18 ×10⁻⁶ cm/s
same,IC50,[3],110 nM
same,half-life,[13],3.6 h
same,half-life,[14],1.8 h
same,CL,[15],3.3 mL/min/kg
same,Vd,[16],0.6 L/kg
same,Vdu,[17],2.5 L/kg
same,bioavailability,[18],80%
CCCn1c(-c2cnc(C)nc2)nc2c(N[C@H]3CCN(C(=O)CC)C3)ncnc21,IC50,[2],135 nM
same,IC50,[3],455 nM
CCC(=O)N1CC[C@H](Nc2ncnc3c2nc(-c2cnc(OC)c(F)c2)n3C)C1,IC50,[1],1300 nM
same,IC50,[2],2.6 nM
same,IC50,[3],20 nM
CCCn1c(-c2cnn(CC)c2C)nc2c(N[C@H]3CCN(C(=O)CC)C3)ncnc21,IC50,[1],3700 nM
same,IC50,[2],21 nM
same,IC50,[3],198 nM
CCC(=O)N1CC[C@H](Nc2ncnc3c2nc(-c2ccn(CC)c2C)n3C)C1,IC50,[2],26 nM
same,IC50,[3],125 nM
CCC(=O)N1CC[C@H](Nc2ncnc3[nH]c(-c4cnn(CC)c4C)nc23)C1,IC50,[1],5400 nM
same,IC50,[2],7.6 nM
same,IC50,[3],875 nM
CCC(=O)N1CC[C@H](Nc2ncnc3c2nc(-c2cnn(CC)c2C)n3C)C1,IC50,[1],7300 nM
CCC(=O)N1CC[C@H](Nc2ncnc3c2nc(-c2ccc(C(F)(F)F)nc2)n3C)C1,IC50,[1],700 nM
same,IC50,[2],9.9 nM
same,IC50,[3],66 nM
CCC(=O)N1CC[C@H](Nc2ncnc3c2nc(-c2cnn(CC)c2C)n3C2CC2)C1,IC50,[2],39 nM
same,IC50,[3],720 nM
CCn1c(-c2cnc(C)nc2)nc2c(O[C@H]3CCN(C(=O)c4cocn4)C3)ncnc21,clearance,[4],3.7 mL/min/kg
same,IC50,[1],> 10000 nM
same,IC50,[5],600 nM
same,CL,[6],25 mL/min/kg
same,IC50,[2],6.4 nM
same,logD,[7],0.7
same,clearance,[8],9.3 mL/min/kg
same,Vdu,[9],1.9 L/kg
same,bioavailability,[10],50%
same,Vd,[11],0.5 L/kg
same,IC50,[3],94 nM
same,half-life,[13],1.8 h
same,half-life,[14],1.7 h
same,CL,[15],16 mL/min/kg
same,Vd,[16],1.7 L/kg
same,Vdu,[17],3.2 L/kg
same,bioavailability,[18],100%
CCn1c(-c2cnc(C)nc2)nc2c(N[C@H]3CCN(C(=O)C4CCOCC4)C3)ncnc21,clearance,[4],24 mL/min/kg
same,IC50,[1],8900 nM
same,CL,[6],220 mL/min/kg
same,IC50,[2],2.1 nM
same,logD,[7],0.7
same,bioavailability,[10],18%
same,Vd,[11],0.7 L/kg
same,IC50,[3],33 nM
same,half-life,[14],1.4 h
same,Vdu,[17],4.3 L/kg
CCC(=O)N1CC[C@H](Nc2ncnc3c2nc(-c2cnn(CC)c2C)n3CC(F)F)C1,IC50,[1],3100 nM
same,IC50,[2],1.3 nM
same,IC50,[3],14 nM
CCC(=O)N1CC[C@H](Nc2ncnc3c2nc(-c2ccc(C)nc2)n3C)C1,IC50,[1],3800 nM
same,IC50,[2],5 nM
same,IC50,[3],160 nM
